Consider three substances from patent US20210130406A1, “PEPTIDE, COMPOSITION, AND METHOD FOR TREATING, PREVENTING, OR AMELIORATING MOOD DISORDER” (KYOTO UNIVERSITY, priority 2018, published 2021).

The subject of experiment [1] is ddy mouse. The experiment in a line: Tail suspension test (motivation-improving effect), oral peptide. Type of experiment: in vivo. The settings on record: 30 minutes after administration, vs saline control. The method, then:
(§1) Each prepared peptide was administered to a mouse (ddy mouse (5-week-old male, body weight 24 g-28 g)) in each of the following tests, and then the motivation-improving effect was evaluated by a tail suspension test.
(§2) Each mouse was suspended by the tail and hung 30 cm above the floor, 30 minutes after peptide administration. Subsequently, over a period of 6 minutes from the start of the test (0 minute), the time (immobility time) during which the mouse was in an immobility state after initiating escape behavior was measured. The immobility state is known as a “despair state”, and it can be evaluated that the shorter the immobility time, the better the despair state and the greater the motivation. Therefore, substances that provide a motivation-improving effect in this test can be effective in treating, preventing, or ameliorating mood disorders.
The amino acid sequence represented by SEQ ID NO: 2 was dissolved in physiological saline and orally administered to each mouse in an amount of 0.03, 0.1, or 0.3 mg/kg per body weight (n=5 to 6). As a control, mice were prepared by orally administering physiological saline alone (n=6). Each mouse was subjected to a tail suspension test, and the motivation-improving effect resulting from the peptide of the present invention was evaluated.
Each of the amino acid sequences represented by SEQ ID NOS: 1 to 3 was dissolved in physiological saline and orally administered to mice in an amount of 0.1 mg/kg per body weight (n=5 to 6). As a control, mice were prepared by orally administering physiological saline alone to the mice (n=6). Each mouse was subjected to a tail suspension test, and the motivation-improving effect resulting from the peptide of the present invention was evaluated.

In experiment [2] the test system is ddy mouse. Kind of experiment: Tail suspension test, peptide combined with receptor antagonists. The settings on record: Test 3, FIG. 3. The class given is in vivo. The method, then:
as §1, §2
Mice were prepared by orally administering the amino acid sequence represented by SEQ ID NO: 2 in an amount of 0.3 mg/kg and various receptor antagonists in combination thereto (n=5 to 6). Each mouse was subjected to a tail suspension test, and the motivation-improving effect resulting from the peptide of the present invention was evaluated.
(1) SCH23390: dopamine D1 receptor antagonist, and the amount used: 30 μg/kg (2) WAY100135: serotonin 5-HT1A receptor antagonist, and the amount used: 10 mg/kg (3) Bicuculline: GABA-A receptor antagonist, and the amount used: 30 mg/kg

[3] abbreviates: Test 2, FIG. 2, oral 0.1 mg/kg in physiological saline.

In the case of QQFLPEG [SEQ ID NO: 3], the immobility time entry in the experiment on ddy mouse [1] (setting [3]) is reported as “not observed to have any decrease in immobility time”.

Take QQFLPEGQSQSQK [SEQ ID NO: 2]: the immobility time result was “shorter than that of the control” with ddy mouse [1] (Test 1, FIG. 1, oral 0.03, 0.1 or 0.3 mg/kg in physiological saline, 6 minutes test, tendency depended on concentration); “shorter immobility time than the control” in the experiment on ddy mouse [1] (setting [3]); “relatively decreased the immobility time” with ddy mouse [2] (oral 0.3 mg/kg combined with Bicuculline (GABA-A receptor antagonist) 30 mg/kg); “significantly increased immobility time” in the experiment with ddy mouse [2] (oral 0.3 mg/kg combined with SCH23390 (dopamine D1 receptor antagonist) 30 μg/kg); “relatively decreased the immobility time” with ddy mouse [2] (oral 0.3 mg/kg combined with WAY100135 (serotonin 5-HT1A receptor antagonist) 10 mg/kg).

As for QSQSQK [SEQ ID NO: 1], the immobility time result in the experiment on ddy mouse [1] (setting [3]) is on record as “shorter immobility time than the control”.
